Measured values as given in ChEMBL document CHEMBL1201862, “PubChem BioAssay data set” (2004).
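These data come from cells grown in 96-well plates and exposed to compound for 48 hours at five concentrations. The concentration for 50% growth inhibition is given as GI50.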 Calls of active or inactive are those of the source. Cut-off read from the data, not from the text of the source: active = GI50 up to about 1.1 µM and inactive = higher.

What was measured:
Experiment in all cases: NCI-60 cell line screen, 48 h
A498 = tested on: A498
COLO 205 = tested on: COLO 205
SF-539 = tested on: SF-539
MDA-MB-435 = tested on: MDA-MB-435
NCI-H460 = tested on: NCI-H460
HOP-62 = tested on: HOP-62
HCC 2998 = tested on: HCC 2998
SF-295 = tested on: SF-295
OVCAR-5 = tested on: OVCAR-5
TK-10 = tested on: TK-10
Malme-3M = tested on: Malme-3M
SK-MEL-2 = tested on: SK-MEL-2
BT-549 = tested on: BT-549
HT-29 = tested on: HT-29
SK-OV-3 = tested on: SK-OV-3
SR = tested on: SR
OVCAR-3 = tested on: OVCAR-3
EKVX = tested on: EKVX
SW-620 = tested on: SW-620
MCF7 = tested on: MCF7
SNB-19 = tested on: SNB-19
SK-MEL-28 = tested on: SK-MEL-28
NCI-H522 = tested on: NCI-H522
OVCAR-4 = tested on: OVCAR-4
NCI/ADR-RES = tested on: NCI/ADR-RES
SN12C = tested on: SN12C
Hs-578T = tested on: Hs-578T
HCT-15 = tested on: HCT-15
SF-268 = tested on: SF-268
A549 = tested on: A549
KM12 = tested on: KM12
ACHN = tested on: ACHN
LOX IMVI = tested on: LOX IMVI
UO-31 = tested on: UO-31
U-251 = tested on: U-251
CAKI-1 = tested on: CAKI-1
HL-60 = tested on: HL-60
UACC-257 = tested on: UACC-257
IGROV-1 = tested on: IGROV-1
786-0 = tested on: 786-0
UACC-62 = tested on: UACC-62
NCI-H23 = tested on: NCI-H23
M14 = tested on: M14
CCRF-CEM = tested on: CCRF-CEM
HCT-116 = tested on: HCT-116
T47D = tested on: T47D
MDA-N = tested on: MDA-N
SNB-75 = tested on: SNB-75
K562 = tested on: K562
OVCAR-8 = tested on: OVCAR-8
PC-3 = tested on: PC-3
DU-145 = tested on: DU-145
MOLT-4 = tested on: MOLT-4
SK-MEL-5 = tested on: SK-MEL-5
NCI-H226 = tested on: NCI-H226
RPMI-8226 = tested on: RPMI-8226
MDA-MB-231 = tested on: MDA-MB-231

Measured: GI50

CC(=O)c1c2c(cc3c1CC1(Cc4cc5c(cc4C1=O)CCC5)C3)CCC2 (configuration not stated)
inactive: A498 > 100 µM | COLO 205 64.6 µM | SF-539 > 100 µM | MDA-MB-435 48.9 µM | NCI-H460 42.6 µM | HOP-62 > 100 µM | HCC 2998 72.9 µM | SF-295 42.5 µM | OVCAR-5 > 100 µM | TK-10 > 66.1 µM | Malme-3M 39.1 µM | SK-MEL-2 79.8 µM | BT-549 27 µM | HT-29 54.2 µM | SK-OV-3 > 87.7 µM | SR 6.64 µM | OVCAR-3 > 62.4 µM | EKVX 36.1 µM | SW-620 85.5 µM | MCF7 35.7 µM | SNB-19 > 100 µM | SK-MEL-28 > 100 µM | NCI-H522 22.2 µM | OVCAR-4 38.5 µM | NCI/ADR-RES 22.5 µM | SN12C > 61.4 µM | Hs-578T > 100 µM | SF-268 > 81.5 µM | A549 42.2 µM | KM12 53.5 µM | ACHN > 68.7 µM | LOX IMVI 38.3 µM | UO-31 36.9 µM | U-251 > 77.1 µM | CAKI-1 17.3 µM | HL-60 7.21 µM | UACC-257 13.2 µM | IGROV-1 > 100 µM | 786-0 > 54.5 µM | UACC-62 > 100 µM | NCI-H23 30.9 µM | M14 > 68.1 µM | CCRF-CEM 14.6 µM | HCT-116 9.12 µM | T47D 8.91 µM | MDA-N > 87.1 µM | SNB-75 > 78 µM | K562 14 µM | OVCAR-8 71.9 µM | PC-3 13.1 µM | DU-145 > 72.3 µM | MOLT-4 4.95 µM | SK-MEL-5 12.1 µM | NCI-H226 34.3 µM | RPMI-8226 10.5 µM | MDA-MB-231 40.2 µM
63 µM: HCT-15
